Data as given in patent publication US20090076029A1 (Palatin Technologies, Inc., priority 2007, published 2009).
Where two headings read alike, the source gives them in different places.

Legend:
MC4-R [1] = system: T1, MC4-R; test: Assay for inverse agonist, HEK-293 cells expressing MC4-R; format: cell-based; conditions: FIG. 3
T1 construct: expressed in transfected cells; host or cells: HEK-293
Experimental: Assay for inverse agonist. […] The experimental protocol was essentially as described above. The cells were exposed to the test compounds over a concentration range of 0.05 nM to 5000 nM for 1 hour at 37° C. AgRP (83-132) was used as the reference inverse agonist. Data analysis and EC50 values were determined by using nonlinear regression analysis with the Prism Graph-Pad software.

MC1-R [2] = system: T2, MC1-R; test: cAMP functional assay, B-16 mouse melanoma cells expressing MC1-R; format: cell-based; conditions: cAMP assay at 1 μM
T2 construct: from B-16 mouse melanoma cells (containing MC1-R); endogenous in cells; host or cells: B-16 mouse melanoma cells
Experimental: (§1) General method for EC50 determination in functional activity assay. Functional evaluation of compounds at melanocortin receptors was performed by measuring the accumulation of intracellular cAMP in HEK-293 cells expressing hMC3-R, hMC4-R or hMC5-R, and in B-16 mouse melanoma cells expressing MC1-R. Cells suspended in Earle's Balanced Salt Solution containing 10 mM HEPES (pH 7.5), 5 mM MgCl2, 1 mM glutamine, 0.1% albumin and 0.6 mM 3-isobutyl-1-methyl-xanthine, a phosphodiesterase inhibitor, were plated in 96 well plates at a density of 0.5×10^5 cells per well. Cells were incubated with the test compounds in the presence or absence of α-MSH for 1 hour at 37° C. cAMP levels in the cell lysates were measured using an EIA kit (Amersham). Data analysis and EC50 values were determined using nonlinear regression analysis with Prism Graph-Pad software.
(§2) Functional status. The agonist/antagonist status with respect to MC1-R, MC-3R, MC4-R and MC5-R of certain compounds of the invention was determined.

hMC4-R [3] = system: T3, hMC4-R; test: cAMP functional assay in HEK-293 cells expressing MC4-R (agonist, neutral antagonist/Schild); format: cell-based, human; conditions: for functional status (pAg, Ag, Antag, Inactive): MC4-R, Table 1; for intrinsic activity at MC4-R: NDP-α-MSH maximal stimulation = 1.0; for functional status at MC4-R: mostly at 1 μM
T3 construct: expressed in transfected cells; host or cells: HEK-293
Summary of the method: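 Cells in EBSS/HEPES pH 7.5 with 0.3 mM IBMX, exposed to compound (0.05-5000 nM, 1% DMSO) for 1 h at 37 °C; cAMP by EIA, EC50 by nonlinear regression. Antagonism: 30 min compound pre-incubation, then 1 nM NDP-α-MSH for 1 h; Schild analysis over 0.005-5000 nM agonist gives pA2.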

MC1-R [4] = biological target: T4, MC1-R; test: Competitive inhibition assay using [I125]-NDP-α-MSH, MC1-R membranes; format: binding, mouse
T4 construct: other: 1 μM compound

hMC5-R [5] = biological target: T5, hMC5-R; test: Competitive inhibition assay using [I125]-NDP-α-MSH, hMC5-R membranes; format: binding, human; conditions: for Ki: read-out: Ki (nM) (NDP-α-MSH) MC5-R; for Inhibition at 1 μM (NDP-α-MSH) MC5-R: 1 μM compound
T5 construct: expressed in transfected cells; host or cells: HEK-293
Summary of the method: (§3)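 Single-concentration displacement (usually 1 μM compound) of 0.2–0.4 nM [125I]-NDP-α-MSH, run 90 min at room temperature in pH 7.2 HEPES containing MgCl2, CaCl2 and KCl. Receptor sources: transfected HEK-293 membranes for human MC3-R/MC4-R/MC5-R, B-16 mouse melanoma membranes for MC1-R. Bound counts normalised to 1 μM α-MSH-defined specific binding; triplicates averaged, values below 0% set to 0%.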

hMC3-R [6] = system: T6, hMC3-R; test: cAMP functional assay, HEK-293 cells expressing hMC3-R; format: cell-based, human; conditions: cAMP assay at 1 μM
T6 construct: expressed in transfected cells; host or cells: HEK-293
Experimental: as §1, §2

hMC5-R [7] = system: T5, hMC5-R; test: cAMP functional assay, HEK-293 cells expressing hMC5-R; format: cell-based, human; conditions: cAMP assay at 1 μM
Experimental: as §1, §2

hMC3-R [8] = biological target: T6, hMC3-R; test: Competitive inhibition assay using [I125]-NDP-α-MSH, hMC3-R membranes; format: binding, human; conditions: for Ki: read-out: Ki (nM) (NDP-α-MSH) MC3-R; for Inhibition at 1 μM (NDP-α-MSH) MC3-R: 1 μM compound
Summary of the method: as §3

hMC4-R [9] = system: T3, hMC4-R; format: binding, human; conditions: for Inhibition at 1 μM (AgRP) MC4-R: 1 μM compound
Summary of the method: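 Membranes from hMC4-R-expressing cells incubated 1 h at 37 °C with 0.2 nM [I^125]-AgRP (83-132) and increasing compound in 25 mM HEPES pH 7.5, 100 mM NaCl, 2 mM CaCl2, 2 mM MgCl2, 0.3 mM 1,10-phenanthroline, 0.5% BSA. Filtration, gamma counting; specific binding kept ≤10% of added counts.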

hMC4-R [10] = biological target: T3, hMC4-R; test: Competitive inhibition assay using [I125]-NDP-α-MSH, hMC4-R membranes; format: binding, human; conditions: for Inhibition at 1 μM (NDP-α-MSH) MC4-R: 1 μM compound
MC1-R [11] = test: Competitive inhibition assay using [I125]-NDP-α-MSH, MC1-R membranes; format: binding, mouse; conditions: for Inhibition at 1 μM (NDP-α-MSH) MC1-R: 1 μM compound
MC4-R [12] = system: T1, MC4-R; format: cell-based; conditions: HEK-293 cells expressing MC4-R
Excerpt: Assay for Antagonists of AgRP in HEK-293/MC4-R Cells stimulated with Forskolin. […] AgRP causes a decrease in the basal adenylyl cyclase activity only to the extent of 40-50%. Even though the AgRP-induced decrease in cAMP levels is substantial, conventional assay methods, such as those described above, have limited sensitivity, precluding detecting small changes that are reversed by certain antagonists to AgRP. This limitation was circumvented by the use of a non-specific activator, forskolin, which directly activates adenylyl cyclase activity and raises cyclic AMP levels. Forskolin, a cell permeable diterpenoid initially isolated from Coleus forskohlii, has the ability to stimulate adenylyl cyclase activity and increase intracellular cAMP, thus activating cAMP-dependent protein kinase and other cAMP receptor proteins. See, e.g., Seamon, K. B., Daly, J. W. Forskolin: a unique diterpene activator of cyclic AMP-generating system. J. Cyclic Nucleotide Res. 7(4):201-24, 1981; Fradkin, J. E., Cook, G. H., Kilhoffer, M. C., Wolff, J. Forskolin stimulation of thyroid adenylate cyclase and cyclic 3′,5′-adenosine monophosphate accumulation. Endocrinology 111 (3):849-56, 1982; Barber, R., Goka, T. J. Adenylate cyclase activity as a function of forskolin concentration. J. Cyclic Nucleotide Protein Phosphor. Res. 10(1):23-9, 1985; and Laurenza, A., Sutkowski, E. M., Seamon, K. B. Forskolin: a specific stimulator of adenylyl cyclase or a diterpene with multiple sites of action? Trends Pharmacol. Sci. 10(11):442-7, 1989. […] The EC50 value was about 5 μM. AgRP inhibited the forskolin-induced response by 65% at a concentration of 10 nM. The difference in forskolin stimulated response and the inhibition due to AgRP in the cAMP levels was exploited to screen compounds for their ability to antagonize AgRP inhibition and […] levels of cAMP accumulation.
Experimental details for assays included incubating cells with the test compound in the presence of the inverse agonist AgRP with the extent of reversal of the AgRP effect measured by following the increase in the levels of intracellular cAMP. HEK-293 cells expressing MCR-4 were suspended in 10 mM HEPES/Earle's Balanced Salt Solution at pH 7.5 with the phosphodiesterase inhibitor IBMX, and pre-incubated for 30 minutes with the compounds (0.5-5000 nM). The cells were then treated with AgRP (10 nM) and incubated further for 30 minutes. The cells were then treated with forskolin (10 μM) and incubated for an additional 60 minutes. Cells were lysed and cAMP was measured by EIA kit (Amersham).

[13] = MC4-R membranes, Table 1, read-out: Ki (nM) I125-AgRP
[14] = MC4-R membranes, Table 1, read-out: Ki (nM) I125-NPD-α-MSH
[15] = read-out: Ki (nM) (NDP-α-MSH) MC4-R

Row | Compound | functional status (pAg, Ag, Antag, Inactive) (hMC4-R [3]) | intrinsic activity at MC4-R (hMC4-R [3]) | functional status at MC4-R (hMC4-R [3]; cAMP assay) | Ki (hMC5-R [5]) [nM] | Ki (hMC3-R [8]) [nM] | Inhibition at 1 μM (AgRP) MC4-R (hMC4-R [9]) [%] | Ki (hMC4-R [9]; [13]) [nM] | Ki (hMC4-R [9]; read-out: Ki (nM) (AgRP) MC4-R) | Ki (hMC4-R [10]; [14]) [nM] | Ki (hMC4-R [10]; [15]) [nM] | Ki (MC1-R [11]) [nM] | Inhibition at 1 μM (NDP-α-MSH) MC1-R (MC1-R [11]) [%] | Inhibition at 1 μM (NDP-α-MSH) MC5-R (hMC5-R [5]) [%] | Inhibition at 1 μM (NDP-α-MSH) MC3-R (hMC3-R [8]) [%] | Inhibition at 1 μM (NDP-α-MSH) MC4-R (hMC4-R [10]) [%] | further results
1 | CC(=O)N[C@H](Cc1ccc2ccccc2c1)C(=O)N1C[C@@H](CC(C)C)N(CCc2ccc3ccccc3c2)C[C@@H]1CCCNC(=N)N [Example 13, N-{2-[2(S)-(3-Guanidino-propyl)-5(R)-isobutyl-4(2-naphthalen-2-yl-ethyl)-piperazin-1-yl]-1(R)-naphthalen-2-ylmethyl-2-oxo-ethyl}-acetamide] | Antag (“Antag” means antagonist) | no intrinsic activity | antagonist | 378 | 474 | 100 | 3.7 | 3.7 | 6 | 6 | – | – | – | – | – | inverse agonism (basal cAMP) (MC4-R [1]): inverse agonism; functional status at MC1-R (MC1-R [2]): no intrinsic activity (intrinsic activity below 0.1 (10%) is classified as inactive or having no intrinsic activity); pA2 value at MC4-R (hMC4-R [3]; Schild plot vs NDP-α-MSH): 7.3; Ki (MC1-R [4]): 4620 nM; Inhibition at 1 μM (NDP-α-MSH) MC1-R (MC1-R [4]; 1 μM compound): 0%; functional status at MC3-R (hMC3-R [6]): no intrinsic activity (intrinsic activity below 0.1 (10%) is classified as inactive or having no intrinsic activity); functional status at MC5-R (hMC5-R [7]): partial agonist (intrinsic activity between 0.1 (10%) and 0.7 (70%) is classified as a partial agonist)
2 | NCCCC[C@H]1C(=O)N(CCc2ccc3ccccc3c2)CCN1C(=O)[C@@H](Cc1ccc(Cl)cc1Cl)NC(=O)/C=C/c1ccccc1 [Example 21, (E)-N—[(R)-2-[(S)-2-(4-Amino-butyl)-4-(2-naphthalen-2-yl-ethyl)-3-oxo-piperazin-1-yl]-1-(2,4-dichloro-benzyl)-2-oxo-ethyl]-3-phenyl-acrylamide] | pAg (“pAg” means partial agonist) | 0.2 | – | 398 | 648 | 100 | 5 | 5 | 6 | 6 | 502 | 30 | 60 | 46 | 96 | EC50 (hMC4-R [3]; cAMP assay, read-out: EC50 (nM) at MC4-R): 112 nM; attenuation of binding of α-MSH and AgRP to MC4-R (hMC4-R [10]; both ligands (NDP-α-MSH and AgRP), summary): attenuate the binding of both α-MSH and AgRP to MC4-R
3 | N=C(N)NCCC[C@H]1CN(C(=O)Cc2ccc3ccccc3c2)[C@H](Cc2ccccc2)CN1C[C@H](N)Cc1ccc2ccccc2c1 [Example 30, N-{3-[1-[2(R)-Amino-3-naphthalen-2-yl-propyl]-5(R)-benzyl-4-(2-naphthalen-2-yl-acetyl)-piperazin-2(S)-yl]-propyl}-guanidine] | Inactive | – | inactive | 178 | 387 | – | 90 | 90 | 55 | 61 | 2770 | 32 | 87 | 49 | 92 | –
4 | Forskolin [reference compound] | – | – | – | – | – | – | – | – | – | – | – | – | – | – | – | total response relative to NDP-α-MSH (MC4-R [12]): three-fold higher; EC50 (MC4-R [12]; read-out: EC50 value (cAMP stimulation)): ~5000 nM
